# Structures can show the parent of a compound that is named as a salt.
# How the values were obtained:
# [1] = Stability in human serum at 37° C. (RP-HPLC); format: in vitro ADME; details: for half-life at 200 μM: read-out: Stability in human serum t1/2
# Method: (§1) The stability of the compound MC526 was studied through reverse phase chromatography in an aqueous medium at pH=1 and in the human serum at 37° C.
# In order to assay the stability of the compound of Example 1 in human serum, a 10 mM solution of the compound in DMSO was added to human serum (obtained from human AB plasma, Sigma) preheated to 37° C. The final concentration of the compound was 200 μM. The resulting solution was incubated at 37±0.5° C. and 300 μL aliquots of the reaction mixture were collected and added to an equal amount of acetonitrile containing trifluoroacetic acid 0.1% at suitable time intervals for deproteinising the serum. The sample was sonicated, vortexed and then centrifuged for 10 minutes at 2150 g. The white supernatant was filtered using PTFE 0.45μm (Alltech) filters and analysed through RP-HPLC.
# (§2) The analysis in RP-HPLC allows separating and quantifying the initial compounds and those deriving from hydrolysis. Analysis was carried out using a HP1100 (Agilent Technologies, Palo Alto, Calif., USA) chromatography system equipped with a quaternary pump (model G1311A), a degassing membrane (G1379A), a diode-array detector (DAD) (model G1315B) integrated in the HP1100 system. A HP ChemStation (Agilent Technologies) system was used for analyzing data. The analytic column was Nucleosil 100-5 C18 Nautilus (250×4, 6 mm, size of the particles 5 μm) (Macherey-Nagel). The mobile phase used was constituted by acetonitrile/water (55/45) with 0.1% trifluoroacetic acid and the flow rate is of 1.2 ml/min. The injection volume was 20 μl (Rheodyne, Cotati, Calif.). The effluent from column was monitored at 226 nm (for the compound MC526 and for CAS 1609) and at 240 nm (for salicylic acid and the salicylate AT38) against a reference at 600 nm. The quantification of the initial products and those deriving from hydrolysis was carried out by means of calibration curves obtained using standards studied in the same conditions (for concentrations comprised between 5 and 200 μM).
# [2] = Solubility in water; format: physicochemical
# [3] = test system: splenocytes of the BALB/C from the control animal group and from the animals carrying colon carcinoma26 (C26GM); test: Proliferation assay (3H-TdR) of anti-CD3/anti-CD28 stimulated splenocytes; format: cell-based, mice; details: FIG. 7
# Method: The mice BALB/c were inoculated s.c. in the inguinal cavity with 0.5*10^6 cells C26GM. The mice were sacrificed after 9 days and the splenocytes were used for in vitro assays.
# The splenocytes of the BALB/C from the control animal group and from the animals carrying colon carcinoma26 (C26GM) are plated to the concentration of 6*10^5 cells per well and stimulated with 3 μg/ml anti-CD3 (2C11, ATCC) and 2 μg/ml of anti-CD28 (clone 37.5, ATCC) both with and without scalar dilutions of the compounds subject of the invention. After 3 days of incubation, 1 μCi/well (1 Cl=37 GBq) of ^3H-TdR (PerkinElmer) is added to the culture for 18 hours and the addition thereof is monitored by scintillation.
# In particular, the controls (Unst) refer to cells not stimulated with antiCD3 and antiCD28 and the control (St) on stimulated cells but drug-free. It can be observed that the doses corresponding to 200 μM and 100 μM are toxic for the cells, in that the proliferation is not observed even on healthy splenocytes.
# [4] = Stability in aqueous medium at pH=1 (0.1 M HCl, 37° C., RP-HPLC); format: physicochemical; details: compound unaltered after 1 hour of incubation, 100 μM
# Method: as §1
# In particular, a 10 mM solution of the compound of Example 1 in DMSO was added to a 0.1 M solution of HCl preheated to 37° C. The final concentration of the compound was 100 μM. The resulting solution was maintained at 37±0.5° C. and 20 μl aliquots of the reaction solution were analysed by means of RP-HPLC at suitable time intervals.
# as §2
SMILES,Hydrolysis of the salicylate derivative in human serum ([1]; release of CAS 1609 and salicylic acid),solubility [2] [µg/mL],half-life at 200 μM [1] [min],Proliferation assay result ([3]; 12.5 μM),Proliferation assay result ([3]; 25 μM),"Proliferation assay result on healthy cells ([3]; 50 μM, healthy cells)","Proliferation assay result ([3]; 100 μM, healthy splenocytes)","Proliferation assay result ([3]; 200 μM, healthy splenocytes)",Stability in buffer at pH = 1 after 1 hour [4] [%]
"NC(=O)c1c(COC(=O)c2ccccc2O)no[n+]1[O-] [AT38, [3-(aminocarbonyl)furoxan-4-yl]methyl salicylate, reference compound]",slowly releases the CAS 1609 compound and salicylic acid,< 1,–,–,–,–,–,–,–
"NCCC(=O)Oc1ccccc1C(=O)OCc1no[n+]([O-])c1C(N)=O [MC526, ([3-(aminocarbonyl)furoxan-4-yl]methyl-2-(β-alanyloxy)benzoate)hydrochloride]",–,10000,1.4,efficient and non-toxic,efficient and non-toxic,partly toxic,toxic,toxic,60
"NCCCC(=O)Oc1ccccc1C(=O)OCc1no[n+]([O-])c1C(N)=O [MC596, ([3-(aminocarbonyl)furoxan-4-yl]methyl-2-(4-aminobutanoyloxy)benzoate hydrochloride)]",–,2500,1.6,–,–,–,–,–,90
"CC(N)C(=O)Oc1ccccc1C(=O)OCc1no[n+]([O-])c1C(N)=O (stereo not shown) [MC598, ([3-(aminocarbonyl)furoxan-4-yl]methyl-2-(alanyloxy)benzoate hydrochloride)]",–,10000,1.3,–,–,–,–,–,80

# — patent publication US8946271B2, “Water soluble furoxan derivatives having antitumor activity” (Humanitas Mirasole S.p.A., priority 2010, dated 2015)
